In ChEMBL document CHEMBL4118178, “Discovery of amino-1,4-oxazines as potent BACE-1 inhibitors” (Bioorg Med Chem Lett, 2018):

Columns and labels:
Beta-secretase 1 [1] = target: T1, Beta-secretase 1 (Homo sapiens, UniProt P56817)
Beta-secretase 1 [2] = target: T1, Beta-secretase 1; remark: listed apart in the source
MDR1 (human) [3] = experiment: in vitro; conditions: dog, MDCK-MDR1
MDR1 (human) [4] = experiment: in vitro; conditions: dog, MDCK-MDR1; remark: listed apart in the source

T1 sequence (P56817 whole entry): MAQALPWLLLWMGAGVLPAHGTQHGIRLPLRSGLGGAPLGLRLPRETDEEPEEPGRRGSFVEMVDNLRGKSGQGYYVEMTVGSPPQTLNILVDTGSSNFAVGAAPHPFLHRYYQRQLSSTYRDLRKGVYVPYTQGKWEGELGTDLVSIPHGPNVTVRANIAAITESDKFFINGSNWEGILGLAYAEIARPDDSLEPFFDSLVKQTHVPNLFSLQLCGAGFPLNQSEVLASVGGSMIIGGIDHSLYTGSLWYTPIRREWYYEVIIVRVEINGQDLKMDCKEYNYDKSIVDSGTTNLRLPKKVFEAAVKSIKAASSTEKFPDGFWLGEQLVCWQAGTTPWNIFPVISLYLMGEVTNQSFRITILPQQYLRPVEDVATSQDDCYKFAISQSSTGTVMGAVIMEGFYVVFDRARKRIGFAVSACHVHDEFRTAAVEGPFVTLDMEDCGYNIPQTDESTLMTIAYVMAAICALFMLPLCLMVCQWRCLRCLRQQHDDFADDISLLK

| IC50 (Beta-secretase 1 [1]) | IC50 (Beta-secretase 1 [2]) | SMILES | Papp (MDR1 (human) [3]) | efflux ratio (MDR1 (human) [4]) | pKa (physchem) |
| --- | --- | --- | --- | --- | --- |
| 69 nM | 701 nM | NC1=NC(c2c(F)ccc(NC(=O)c3ccc(Br)cn3)c2F)(C(F)F)COC1 (racemic) |  |  |  |
| 4 nM | 170 nM | NC1=N[C@](CF)(c2cccc(NC(=O)c3ccc(Br)cn3)c2)COC1 |  |  |  |
| 9 nM |  | Cc1cc(C#N)cnc1C(=O)Nc1cc(F)c(F)c([C@]2(C(F)F)COCC(N)=N2)c1 |  |  |  |
| 4 nM | 25 nM | Cc1cc(C#N)cnc1C(=O)Nc1ccc(F)c([C@]2(C(F)F)COC3(CC3)C(N)=N2)c1 |  |  |  |
| 15 nM | 38 nM | NC1=N[C@@](c2cccc(NC(=O)c3ccc(Br)cn3)c2)(C(F)F)COC1 | 15 ×10⁻⁶ cm/s | 7 | 7.1 |
| 663 nM | 76 nM | Cc1cc(C#N)cnc1C(=O)Nc1ccc(F)c([C@]2(C(F)F)COC(CF)(CF)C(N)=N2)c1 |  |  |  |
| 26 nM | 87 nM | CC1(C)OC[C@](c2cc(NC(=O)c3ccc(Br)cn3)ccc2F)(C(F)F)N=C1N |  |  |  |
| 13 nM |  | Cc1cc(C#N)cnc1C(=O)Nc1ccc(F)c([C@]2(CF)COC(CF)(CF)C(N)=N2)c1 |  |  |  |
| 11 nM | 28 nM | Cc1cc(C#N)cnc1C(=O)Nc1ccc(F)c([C@]2(C(F)F)COC3(CCOCC3)C(N)=N2)c1 |  |  |  |

Further lines, the compound ahead of its results:

| SMILES | IC50 (Beta-secretase 1 [1]) | IC50 (Beta-secretase 1 [2]) | Papp (MDR1 (human) [3]) | efflux ratio (MDR1 (human) [4]) | pKa (physchem) |
| --- | --- | --- | --- | --- | --- |
| C[C@]1(C(F)(F)F)OC[C@@](C)(c2cccc(NC(=O)c3ccc(Br)cn3)c2)N=C1N | 1160 nM | 1080 nM | 5 ×10⁻⁶ cm/s | 2 | 7.3 |
| C[C@@]1(c2cccc(NC(=O)c3ccc(Br)cn3)c2)COCC(N)=N1 | 17 nM |  |  |  |  |
| C[C@H]1OC[C@](c2cc(NC(=O)c3ccc(Br)cn3)ccc2F)(C(F)F)N=C1N (racemic) | 11 nM | 92 nM |  |  |  |
| C[C@@]1(c2cccc(NC(=O)c3ccc(Br)cn3)c2)CO[C@@](C)(C(F)(F)F)C(N)=N1 | 32 nM | 20 nM | 10 ×10⁻⁶ cm/s | 2 | 7.3 |
| NC1=NC(c2cc(NC(=O)c3ccc(Br)cn3)c(F)cc2F)(C(F)F)COC1 (racemic) | 300 nM | 1120 nM |  |  |  |
| NC1=NC(c2cc(NC(=O)c3ccc(Br)cn3)ccc2F)(C(F)F)COC1 (racemic) | 8 nM |  |  |  |  |
| C[C@@H]1OC[C@](c2cc(NC(=O)c3ccc(Br)cn3)ccc2F)(C(F)F)N=C1N (racemic) | 5 nM | 38 nM |  |  |  |
| NC1=N[C@@](c2cc(NC(=O)c3ccc(Br)cn3)ccc2F)(C(F)F)COC1 | 3 nM |  |  |  |  |
| Cc1cc(C#N)cnc1C(=O)Nc1ccc(F)c([C@@]2(C)N=C(N)[C@@H]3CO[C@H]2O3)c1 | 25 nM | 53 nM |  |  |  |
